# Results published in patent US20120058133A1, “INHIBITION OF TRNA SYNTHETASES AND THERAPEUTIC APPLICATIONS THEREOF” (President and Fellows of Harvard College, priority 2009, published 2012).
# Tested on: TGFβ signaling
# Assay: Lymphocyte responses to TGFβ (Smad phosphorylation and others)
# Format: cell-based, mouse
# Conditions: low dose HF; 10 μM SB-431542
# Experimental: FIG. 8. […] FIG. 8A is a set of FACS analyses of CD4^+ CD25^− T cells activated in Th1 or Th2 polarizing conditions, either in the presence or absence of TGFβ. DMSO, 10 nM HF, 10 nM MAZ1310, or 10 μM SB-431542 added as indicated at the time of activation. Intracellular cytokine staining was performed on expanded T cells on day 5.
# FIG. 8B is a set of FACS analyses of CD8^+ T cells activated in the presence or absence of TGFβ and cultured with DMSO, 10 nM HF, 10 nM MAZ1310, or 10 μM SB-431542. Expanded cells were restimulated on day 5 and intracellular staining was performed.
# FIG. 8C is a set of FACS analyses of CFSE-labeled B cells activated by LPS stimulation in the presence or absence of TGFβ plus DMSO, 10 nM HF, 10 nM MAZ1310, or 10 μM SB-431542. Intracellular IL-6 production in B cells restimulated with PMA plus ionomycin, or cell-surface IgA expression was determined 4 days after activation.
# FIG. 8D depicts western blot analyses of purified CD4^+ CD25^− T cells treated with DMSO, 40 nM MAZ1310, titrating concentrations of HF (2.5-40 nM) or 10 μM SB-431542 for 30 minutes in complete medium supplemented with 0.1% fetal calf serum. T cells were then activated in the presence or absence of 3 ng/ml TGFβ. Whole cell extracts were prepared after 1 hour of stimulation and western blot analyses were performed using the indicated antibodies. […]
smiles,measurement,value
"O=C(CC1NCCCC1O)Cn1cnc2cc(Br)c(Cl)cc2c1=O (racemic) [HF, halofuginone]",TGFβ-induced Smad phosphorylation and other lymphocyte responses to TGFβ,inhibited neither
